pIC50: −log10 of the molar value. ≈ marks a conversion by molar mass, not a printed value.
Tests used:
[1] = system: Mycobacterium tuberculosis; assay: Antimycobacterial activity against Mycobacterium tuberculosis H37Rv assessed as bacterial growth inhibition incubated for 6 days by resazurin dye based assay; format: functional; details: 144 h, time 6 day
[2] = system: Mycobacterium tuberculosis; assay: Antitubercular activity against Mycobacterium tuberculosis assessed as bacterial growth inhibition; format: functional
[3] = system: Mycobacterium tuberculosis; assay: Antitubercular activity against Mycobacterium tuberculosis H37Rv assessed as bacterial growth inhibition by REMA analysis; format: functional
[4] = system: Mycobacterium tuberculosis; assay: Antimycobacterial activity against Mycobacterium tuberculosis H37Rv assessed as bacterial growth inhibition incubated for 1 week by resazurin reduction microplate assay; format: functional; details: 168 h, time 1 weeks
[5] = biological target: T1, Decaprenylphosphoryl-beta-D-ribose oxidase (Mycobacterium tuberculosis (strain ATCC 25618 / H37Rv), UniProt P9WJF1); assay: Inhibition of Mycobacterium tuberculosis H37Rv DprE1 assessed as formation of resorufin using farnesyl-phosphoryl-beta-D-ribofuranose by AmplexRed reagent based fluorescence assay
T1 sequence (P9WJF1 whole entry): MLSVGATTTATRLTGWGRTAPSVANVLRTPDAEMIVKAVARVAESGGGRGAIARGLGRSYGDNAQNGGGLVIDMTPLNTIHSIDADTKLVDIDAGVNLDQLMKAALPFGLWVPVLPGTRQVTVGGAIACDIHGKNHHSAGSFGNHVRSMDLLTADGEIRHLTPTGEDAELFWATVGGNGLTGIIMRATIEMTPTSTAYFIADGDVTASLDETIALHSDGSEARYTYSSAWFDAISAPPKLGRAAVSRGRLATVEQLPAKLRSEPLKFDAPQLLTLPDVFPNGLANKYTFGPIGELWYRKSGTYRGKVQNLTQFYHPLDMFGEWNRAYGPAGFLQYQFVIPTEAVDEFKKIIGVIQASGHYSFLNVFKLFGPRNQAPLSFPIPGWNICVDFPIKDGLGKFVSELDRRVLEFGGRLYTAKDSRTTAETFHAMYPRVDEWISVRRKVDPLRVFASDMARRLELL

[6] = system: Mycobacterium tuberculosis; assay: Antitubercular activity against Mycobacterium tuberculosis H37Rv assessed as bacterial growth inhibition and measured upto 14 days by microplate alamar blue assay; format: functional; details: 336 h, time <= 14 day
[7] = system: Mycobacterium tuberculosis; assay: Antitubercular activity against Mycobacterium tuberculosis H37Rv ATCC 27294 infected in mouse J774 cells assessed as intracellular bacterial growth inhibition incubated for by resazurin microtiter assay; format: functional
[8] = system: Mycobacterium tuberculosis; assay: Antitubercular activity against Mycobacterium tuberculosis H37Rv ATCC 27294 assessed as bacterial growth inhibition by resazurin microtiter assay; format: functional
[9] = system: Mycobacterium tuberculosis; assay: Antitubercular activity against Mycobacterium tuberculosis H37Rv assessed as bacterial growth inhibition; format: functional
[10] = system: Mycobacterium tuberculosis; assay: Antitubercular activity against Mycobacterium tuberculosis H37Rv infected in human THP-1 cells assessed as bacterial growth inhibition incubated for 48 hrs by PrestoBlue staining based fluorescence analysis; format: functional, organism-based; details: THP-1, 48 h
[11] = system: Mycobacterium tuberculosis; assay: Antitubercular activity against Mycobacterium tuberculosis H37Rv assessed as bacterial growth inhibition incubated for 7 days by resazurin reduction microplate assay; format: functional; details: 168 h, time 7 day
[12] = system: Mycobacterium tuberculosis; assay: Antitubercular activity against Mycobacterium tuberculosis H37Rv assessed as bacterial growth inhibition incubated for 6 days by resazurin reduction microplate assay; format: functional; details: 144 h, time 6 day
[13] = system: Mycobacterium tuberculosis; assay: Antitubercular activity against Mycobacterium tuberculosis H37Rv infected in human monocyte macrophage assessed as bacterial growth inhibition and measured after 21 days by colony counting based analysis; format: functional; details: 504 h, time 21 day
[14] = system: Mycobacterium tuberculosis; assay: Antitubercular activity against Mycobacterium tuberculosis H37Rv assessed as bacterial growth inhibition by microdilution method; format: functional
[15] = system: Mycobacterium tuberculosis; assay: Antitubercular activity against Mycobacterium tuberculosis H37Rv assessed as bacterial growth inhibition incubated for 14 days by agar plate method; format: functional; details: 336 h, time 14 day
[16] = system: Mycobacterium tuberculosis; assay: Antitubercular activity against Mycobacterium tuberculosis H37Rv assessed as bacterial growth inhibition incubated for 6 days by resazurin based fluorescence assay; format: functional; details: 144 h, time 6 day
[17] = system: Mycobacterium tuberculosis; assay: Antimycobacterial activity against Mycobacterium tuberculosis H37Rv ATCC27294 assessed as bacterial growth inhibition incubated for 7 days by microplate Alamar blue assay; format: functional; details: H37Rv ATCC27294, 168 h, time 7 day
[18] = system: Mycobacterium tuberculosis; assay: Antitubercular activity against Mycobacterium tuberculosis MDR_CHUV assessed as bacterial growth inhibition by REMA analysis; format: functional
[19] = system: Mycobacterium tuberculosis; assay: Antitubercular activity against Mycobacterium tuberculosis H37Rv assessed as bacterial growth inhibition incubated for 24 hrs by [14C]-acetate labelling based radiometric analysis; format: functional
[20] = system: Mycobacterium tuberculosis; assay: Antitubercular activity against Mycobacterium tuberculosis H37Rv infected in BALB/c mouse assessed as reduction in bacterial load at 100 mg/kg, po for 10 days by CFU analysis; format: functional; details: time 10 day
[21] = system: Mycobacterium tuberculosis; assay: In vivo antimycobacterial activity against Mycobacterium tuberculosis H37Rv infected in BALB/c mouse assessed as reduction in log10 CFU in lungs at 50 mg/kg, po and measured after 4 weeks; format: functional
[22] = system: Mycobacterium tuberculosis; assay: In vivo antimycobacterial activity against Mycobacterium tuberculosis H37Rv infected in BALB/c mouse assessed as reduction in log10 CFU in lungs at 12.5 mg/kg, po and measured after 4 weeks; format: functional
[23] = system: Mycobacterium tuberculosis; assay: Antitubercular activity against Mycobacterium tuberculosis H37Rv ATCC25618 assessed as bacterial growth inhibition incubated for 6 days by resazurin based fluorescence analysis; format: functional; details: H37Rv ATCC25618, 144 h, time 6 day
[24] = system: Mycobacterium tuberculosis; assay: Antitubercular activity against Mycobacterium tuberculosis H37Rv infected in human HepG2 cells assessed as bacterial growth inhibition incubated for 4 weeks by resazurin reduction microtiter assay; format: functional, organism-based; details: HepG2, 672 h

How did the MIC [1] turn out when `CCS(=O)(=O)N1CCN(c2nc(=O)c3cc(C(F)(F)F)cc([N+](=O)[O-])c3s2)CC1` was run?
The MIC was 0.003 µg/mL (≈ 0.00663 µM).

How did the MIC [2] turn out when `Clc1ccc2c(c1)N(CCC[P+](c1ccccc1)(c1ccccc1)c1ccccc1)c1ccccc1S2.[Cl-]` was run?
The MIC was 1 µg/mL.

`O=c1nc(N2CCN(CCCCc3ccccc3)CC2)sc2c([N+](=O)[O-])cc(C(F)(F)F)cc12` was tested. Which MIC [3] did it give?
The MIC was 0.00035 µg/mL (≈ 0.000711 µM).

Which MIC [4] does the source give for `C[C@H]1COC2(CCN(c3nc(=O)c4cc(C(F)(F)F)cc(-n5cccc5)c4s3)CC2)O1` here?
Its MIC is 0.35 µM (≈ 0.158 µg/mL).

What about the pIC50 [5] of the same molecule?
The pIC50 was over 5.10.

`Cc1cc(C)c2cc(C(=O)NC3CCCCCCC3)[nH]c2c1` was tested. Which MIC [6] did it give?
Its MIC is 0.0039 µg/mL (≈ 0.0131 µM).

How did the MIC [7] turn out when `CC1(C)CC(=O)C(=CNc2ccccc2O)C(=O)C1` was run?
The MIC was 8 µg/mL (≈ 30.9 µM).

What about the MIC90 [8] of the same molecule?
Its MIC90 is 7 µg/mL (≈ 27 µM).

How did the MIC50 [9] turn out when `CCCCCCCCn1cc(CN2CCCCCC2)c2c(F)cccc21` was run?
The MIC50 was 2.3 µM (≈ 0.825 µg/mL).

What does the source list for `CCSc1nc(NC)c2ccccc2n1`?
IC50 [10]: 0.012 µg/mL (≈ 0.0547 µM); MIC [11]: 0.09 µg/mL (≈ 0.41 µM)

With `O=C(/C=C/c1nccs1)N1CCN(Cc2ccc3c(c2)OCO3)CC1` as the molecule, how does the IC50 [10] read?
Its IC50 is 1.8 µg/mL (≈ 5.04 µM).

What about the MIC [12] of the same molecule?
The MIC was 0.3 µg/mL (≈ 0.839 µM).

With `Brc1ccc2[nH]c(CCC3CCCCC3)nc2c1` as the molecule, how does the MIC99 [13] read?
The MIC99 was 2.44 µM (≈ 0.75 µg/mL).

Which results are given for `O=c1nc(N2CCN(CC3CCCCC3)CC2)sc2c(-n3cccc3)cc(C(F)(F)F)cc12`?
MIC [4]: 0.34 µM (≈ 0.162 µg/mL); pIC50 [5]: > 5.10

With `O=C1CCc2c(cccc2OC[C@]2(O)CCN(c3c(F)cc(Cl)cc3F)C[C@H]2O)N1` as the molecule, how does the MIC [2] read?
The MIC was 0.0005 µg/mL (≈ 0.00114 µM).

How did the MIC [14] turn out when `COC(=O)c1c(NC(=O)c2c(F)c(F)c(F)c(F)c2F)sc2c1CCCCC2` was run?
The MIC was 1 µM.

With `CCCCCCCN1CCN(c2nc(=O)c3cc(C(F)(F)F)cc([N+](=O)[O-])c3s2)CC1` as the molecule, how does the MIC [3] read?
Its MIC is 0.00019 µg/mL (≈ 0.000414 µM).

What does the source list for `COc1ccc(/C=C2/S/C(=N/N=C/c3ccccc3O)NC2=O)cc1`?
MIC [7]: 4 µg/mL (≈ 11.3 µM); MIC90 [8]: 1 µg/mL (≈ 2.83 µM)

For `CCNc1nc(SCC)nc2ccccc12`, which IC50 [10] is on record?
Its IC50 is 0.011 µg/mL (≈ 0.0471 µM).

What about the MIC [11] of the same molecule?
Its MIC is 0.05 µg/mL (≈ 0.214 µM).

`Cc1cc2oc(=O)cc(-c3ccccc3)c2c(C)c1-c1ccc(CN2CCOCC2)cc1` was tested. Which MIC [15] did it give?
Its MIC is 0.42 µM (≈ 0.179 µg/mL).

For `CC(C)/N=c1\cc2n(-c3ccc(Cl)cc3)c3ccccc3nc-2cc1Nc1ccc(Cl)cc1` [CLOFAZIMINE], which MIC [9] is on record?
The MIC was 0.12 µg/mL (≈ 0.253 µM).

For `c1cc2c(s1)CCOC21CCN(Cc2ccc3c(c2)OCCO3)CC1`, which MIC [16] is on record?
The MIC was 0.38 µM (≈ 0.136 µg/mL).

For `O=c1nc(N2CCN(S(=O)(=O)c3cccs3)CC2)sc2c([N+](=O)[O-])cc(C(F)(F)F)cc12`, which MIC [1] is on record?
The MIC was 0.004 µg/mL (≈ 0.0079 µM).

How did the MIC [17] turn out when `O=c1nc(N2CCC3(CCN(Cc4ccc(F)cc4)C3)CC2)sc2c([N+](=O)[O-])cc(C(F)(F)F)cc12` was run?
The MIC was under 0.035 µM.

`C[C@H]1COC2(CCN(c3nc(=O)c4cc(C(F)(F)F)cc([N+](=O)[O-])c4s3)CC2)O1` [BTZ-043] was tested. Which MIC99 [18] did it give?
Its MIC99 is 0.002 µg/mL (≈ 0.00464 µM).

With `CCc1ccc([C@H]2C[C@@H](C(F)(F)F)n3ncc(C(=O)NCc4ccc5c(c4)OCO5)c3N2)cc1` as the molecule, how does the MIC [19] read?
The MIC was 0.16 µM (≈ 0.0756 µg/mL).

What does the source list for `O=C(/C=C/c1cscn1)N1CCN(Cc2ccc3c(c2)OCO3)CC1`?
IC50 [10]: 0.2 µg/mL (≈ 0.56 µM); MIC [12]: 0.1 µg/mL (≈ 0.28 µM); Activity [20]: 0.6 log10CFU

With `Cc1cc(C)c2cc(C(=O)NC3CCCCCC3)[nH]c2c1` as the molecule, how does the MIC [6] read?
The MIC was 0.0156 µg/mL (≈ 0.0549 µM).

With `NC(=O)c1cnccn1` [PYRAZINAMIDE] as the molecule, how does the MIC [9] read?
The MIC was 3.12 µg/mL (≈ 25.3 µM).

How did the Activity [21] turn out when `CC1(C)CCC(NC(=O)c2cc3c(Cl)cc(Cl)cc3[nH]2)CC1` was run?
Its Activity is 3.82 log10CFU.

What about the Activity [22] of the same molecule?
Its Activity is 1.24 log10CFU.

Which MIC [19] does the source give for `CCc1ccc([C@H]2C[C@@H](C(F)(F)F)n3ncc(C(=O)NCc4ccc(F)cn4)c3N2)cc1` here?
Its MIC is 0.5 µM (≈ 0.224 µg/mL).

With `CCc1ccc(NC(=O)COc2cc(C)nc3ccc(OC)cc23)cc1` as the molecule, how does the MIC [23] read?
The MIC was 0.02 µg/mL (≈ 0.0571 µM).

Which MIC [2] does the source give for `CN(C)CCCN1c2ccccc2Sc2ccc(Cl)cc21` [CHLORPROMAZINE] here?
Its MIC is 25 µg/mL (≈ 78.4 µM).

Which MIC [12] does the source give for `O=C(/C=C/c1ccsc1)N1CCN(Cc2ccc3c(c2)OCO3)CC1` here?
Its MIC is 0.1 µg/mL (≈ 0.281 µM).

What about the IC50 [24] of the same molecule?
The IC50 was 0.3 µg/mL (≈ 0.842 µM).

Reference: ChEMBL document CHEMBL5260858, “Targeting mycobacterial membranes and membrane proteins: Progress and limitations” (Bioorg Med Chem, 2023)
